Measurements reported in PubChem BioAssay AID1259411 (Chemical Carcinogenesis Research Information System (CCRIS), 2018).
Calls of active or inactive are those of the source. No rule for the calls is given here.

Test system: rodent carcinogenicity bioassays, tumor incidence
Test: CCRIS carcinogenicity studies
Details: Dose: 0, Dose: 0
Method in brief: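 Archive of carcinogenicity, mutagenicity, tumor promotion and tumor inhibition results drawn from journals, NCI reports and other sources, expert-reviewed; covers 1985-2011 and is no longer updated.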

Q: How did the carcinogen call (Species: MOUSE, Strain/Sex: CD-1/FEMALE, Route: INTRAPERITONEAL, 0.25, 0.5, 1.0 UMOL IN DMSO TO NEWBORN MICE ON DAYS 1, 8 AND 15 OF LIFE RESPECTIVELY (TOTAL DOSE: 1.75 UMOL) (STUDY D, 0.25, 0.5, 1.0 UMOL IN DMSO TO NEWBORN MICE ON DAYS 1, 8 AND 15 OF LIFE RESPECTIVELY (TOTAL DOSE: 1.75 UMOL) (STUDY D) turn out when `Cc1ccnc2ccccc12` was run?
A: The carcinogen call was “inactive; negative”.

Q: What about the carcinogen call (Species: MOUSE, Strain/Sex: CD-1/MALE, Route: INTRAPERITONEAL, 0.25, 0.5, 1.0 UMOL IN DMSO TO NEWBORN MICE ON DAY 1,8 AND 15 OF LIFE RESPECTIVELY (TOTAL DOSE: 1.75 UMOL) (STUDY DUR, 0.25, 0.5, 1.0 UMOL IN DMSO TO NEWBORN MICE ON DAY 1,8 AND 15 OF LIFE RESPECTIVELY (TOTAL DOSE: 1.75 UMOL) (STUDY DUR, Tumor Site: Type of Lesion: LIVER: ADENOMA, HEPATOMA) of the same compound?
A: The carcinogen call was “active; positive”.

Q: And the carcinogen call (Species: RAT, Strain/Sex: SPRAGUE-DAWLEY/FEMALE, Route: SUBCUTANEOUS, 200 UMOL/KG INTO SUPRASCAPULAR REGION ON DAY 1 OF LIFE FOLLOWED BY 0, 100 UMOL 1/WK AT WK 2-7 THEN 0, 200 UMOL ONCE A, 200 UMOL/KG INTO SUPRASCAPULAR REGION ON DAY 1 OF LIFE FOLLOWED BY 0, 100 UMOL 1/WK AT WK 2-7 THEN 0, 200 UMOL ONCE A)?
A: The carcinogen call was “inactive; negative”.

Q: And the carcinogen call (Species: RAT, Strain/Sex: SPRAGUE-DAWLEY/MALE, Route: SUBCUTANEOUS, 200 UMOL/KG INTO SUPRASCAPULAR REGION ON DAY 1 OF LIFE FOLLOWED BY 0, 100 UMOL 1/WK AT WK 2-7 THEN 0, 200 UMOL ONCE A, 200 UMOL/KG INTO SUPRASCAPULAR REGION ON DAY 1 OF LIFE FOLLOWED BY 0, 100 UMOL 1/WK AT WK 2-7 THEN 0, 200 UMOL ONCE A)?
A: The carcinogen call was “inactive; negative”.

Q: Which results are given for `CCCCCN(C)N=O`?
A: carcinogen call (Species: HAMSTER, Strain/Sex: SYRIAN/FEMALE, Route: GAVAGE, 5.6 MG/KG 1/WK FOR 23-30 WK (TOTAL DOSE: 0; 1.1 MMOL) (STUDY DURATION: LIFETIME), 5.6 MG/KG 1/WK FOR 23-30 WK (TOTAL DOSE: 0; 1.1 MMOL) (STUDY DURATION: LIFETIME), Tumor Site: Type of Lesion: LUNG: ALVEOLAR/BRONCHIAL ADENOMA, NASAL MUCOSA: CARCINOMA, ADENOMA, FORESTOMACH: SQUAMOUS CELL CARCINOMA, SQUAMOUS CELL, Tumor Site: Type of Lesion: LUNG: ALVEOLAR/BRONCHIAL ADENOMA, NASAL MUCOSA: CARCINOMA, ADENOMA, FORESTOMACH: SQUAMOUS CELL CARCINOMA, SQUAMOUS CELL): active; positive; carcinogen call (Species: HAMSTER, Strain/Sex: SYRIAN/MALE,FEMALE, Route: INTRAPERITONEAL, 3, 6 MG/KG ONCE ON DAYS 1 AND 3 OF AGE, RESPECTIVELY (STUDY DURATION: >75 WK), 3, 6 MG/KG ONCE ON DAYS 1 AND 3 OF AGE, RESPECTIVELY (STUDY DURATION: >75 WK)): inactive; negative; carcinogen call (Species: HAMSTER, Strain/Sex: SYRIAN/MALE,FEMALE, Route: INTRAPERITONEAL, 3 MG/KG ONCE TO NEWBORN ANIMALS (STUDY DURATION: LIFETIME)): inactive; negative; carcinogen call (Species: HAMSTER, Strain/Sex: SYRIAN/MALE,FEMALE, Route: INTRAPERITONEAL, 6 MG/KG ONCE TO 3 D-OLD ANIMALS (STUDY DURATION: LIFETIME)): inactive; negative; carcinogen call (Species: HAMSTER, Strain/Sex: SYRIAN/MALE,FEMALE, Route: INTRAPERITONEAL, 70-100 MG/KG ONCE TO ADULT ANIMALS (STUDY DURATION: LIFETIME), Tumor Site: Type of Lesion: ESOPHAGUS: PAPILLOMA OR CARCINOMA): active; positive; carcinogen call (Species: HAMSTER, Strain/Sex: SYRIAN/MALE,FEMALE, Route: INTRAPERITONEAL, 70 MG/KG (3 MALE HAMSTERS), 100 MG/KG (11 FEMALE HAMSTERS) ONCE AT 46-49 DAYS OF AGE (STUDY DURATION: >43 WK), 70 MG/KG (3 MALE HAMSTERS), 100 MG/KG (11 FEMALE HAMSTERS) ONCE AT 46-49 DAYS OF AGE (STUDY DURATION: >43 WK)): inactive; negative; carcinogen call (Species: HAMSTER, Strain/Sex: SYRIAN/MALE,FEMALE, Route: INTRAPERITONEAL, 75 MG/KG 1/WK FOR 6 WK BEGINNING AT 38 DAYS OF AGE (STUDY DURATION: >33 WK), Tumor Site: Type of Lesion: FORESTOMACH: PAPILLOMA, LUNG: ADENOMA, NASAL CAVITY: TUMOR, Tumor Site: Type of Lesion: FORESTOMACH: PAPILLOMA, LUNG: ADENOMA, NASAL CAVITY: TUMOR): active; positive; carcinogen call (Species: HAMSTER, Strain/Sex: SYRIAN/MALE,FEMALE, Route: INTRAPERITONEAL, 75 MG/KG 1/WK FOR 6 WK TO ADULT ANIMALS (STUDY DURATION: LIFETIME), Tumor Site: Type of Lesion: ESOPHAGUS: PAPILLOMA, FORESTOMACH: PAPILLOMA, LUNG: ADENOMA, NASAL CAVITY: ADENOMA, ADENOCARCINOMA OR SQUAMOUS CARCINOMA, Tumor Site: Type of Lesion: ESOPHAGUS: PAPILLOMA, FORESTOMACH: PAPILLOMA, LUNG: ADENOMA, NASAL CAVITY: ADENOMA, ADENOCARCINOMA OR SQUAMOUS CARCINOMA): active; positive; carcinogen call (Species: HAMSTER, Strain/Sex: SYRIAN/MALE, Route: GAVAGE, 5.6 MG/KG 1/WK FOR 23-30 WK (TOTAL DOSE: 0; 1.1 MMOL) (STUDY DURATION: LIFETIME), 5.6 MG/KG 1/WK FOR 23-30 WK (TOTAL DOSE: 0; 1.1 MMOL) (STUDY DURATION: LIFETIME), Tumor Site: Type of Lesion: LIVER: HEPATOCELLULAR ADENOMA, HEMANGIOSARCOMA, LUNG: ALVEOLAR/BRONCHIAL ADENOMA, NASAL MUCOSA: CARCINOMA, FORESTOMACH:, Tumor Site: Type of Lesion: LIVER: HEPATOCELLULAR ADENOMA, HEMANGIOSARCOMA, LUNG: ALVEOLAR/BRONCHIAL ADENOMA, NASAL MUCOSA: CARCINOMA, FORESTOMACH:): active; positive; carcinogen call (Species: MOUSE, Strain/Sex: 101/N/MALE, FEMALE, Route: ORAL, 0.0015% IN DRINKING WATER FOR 8 WK (STUDY DURATION: 24 WK), Tumor Site: Type of Lesion: ESOPHAGUS: TUMOR): active; positive; carcinogen call (Species: MOUSE, Strain/Sex: BXH-8/MALE, FEMALE, Route: ORAL, 0.0015% IN DRINKING WATER FOR 8 WK (STUDY DURATION: 24 WK), Tumor Site: Type of Lesion: ESOPHAGUS: TUMOR): active; positive; carcinogen call (Species: MOUSE, Strain/Sex: C57BL/MALE,FEMALE, Route: ORAL, 0.0015% IN DRINKING WATER FOR 8 WK (STUDY DURATION: 24 WK), Tumor Site: Type of Lesion: ESOPHAGUS:TUMOR): active; positive; carcinogen call (Species: MOUSE, Strain/Sex: STX/LE/MALE,FEMALE, Route: ORAL, 0.0015% IN DRINKING WATER FOR 8 WK (STUDY DURATION: 24 WK), Tumor Site: Type of Lesion: ESOPHAGUS: TUMOR): active; positive; carcinogen call (Species: MOUSE, Strain/Sex: SWISS/MALE,FEMALE, Route: INTRAPERITONEAL, 15 MG/KG 1/WK FOR 3 WK BEGINNING AT 38 DAYS OF AGE (STUDY DURATION: >79 WK), Tumor Site: Type of Lesion: ESOPHAGUS: PAPILLOMA, LUNG: ADENOMA): active; positive; carcinogen call (Species: MOUSE, Strain/Sex: SWISS/MALE,FEMALE, Route: INTRAPERITONEAL, 15 MG/KG 1/WK FOR 3 WK TO ADULT ANIMALS (STUDY DURATION: LIFETIME), Tumor Site: Type of Lesion: ESOPHAGUS: PAPILLOMA, LUNG: ADENOMA): active; positive; carcinogen call (Species: RAT, Strain/Sex: WISTAR/MALE,FEMALE, Route: INTRAPERITONEAL, 6, 12.5 MG/KG ONCE AT 1 AND 3 DAYS OF AGE, RESPECTIVELY (STUDY DURATION: >82 WK), 6, 12.5 MG/KG ONCE AT 1 AND 3 DAYS OF AGE, RESPECTIVELY (STUDY DURATION: >82 WK)): inactive; negative; carcinogen call (Species: RAT, Strain/Sex: WISTAR/MALE,FEMALE, Route: INTRAPERITONEAL, 6 MG/KG ONCE TO NEWBORN ANIMALS (STUDY DURATION: LIFETIME)): inactive; negative; carcinogen call (Species: RAT, Strain/Sex: WISTAR/MALE,FEMALE, Route: INTRAPERITONEAL, 12.5 MG/KG ONCE TO 3 D-OLD ANIMALS (STUDY DURATION: LIFETIME)): inactive; negative; carcinogen call (Species: RAT, Strain/Sex: WISTAR/MALE,FEMALE, Route: INTRAPERITONEAL, 50-70 MG/KG ONCE TO ADULT ANIMALS (STUDY DURATION: LIFETIME), Tumor Site: Type of Lesion: ESOPHAGUS: PAPILLOMA, CARCINOMA): active; positive; carcinogen call (Species: RAT, Strain/Sex: WISTAR/MALE,FEMALE, Route: INTRAPERITONEAL, 50 MG/KG (7 FEMALE RATS), 60 MG/KG (2 FEMALE RATS), 70 MG/KG (10 MALE RATS) ONCE AT 42-50 DAYS OF AGE (STUDY DURATION, 50 MG/KG (7 FEMALE RATS), 60 MG/KG (2 FEMALE RATS), 70 MG/KG (10 MALE RATS) ONCE AT 42-50 DAYS OF AGE (STUDY DURATION, Tumor Site: Type of Lesion: ESOPHAGUS: CARCINOMA): active; positive
